Series [1] deals with CT26 tumor. As to the kind of experiment: CT26 syngeneic tumor model: tumor growth and survival. The series is classed as in vivo, mouse. As for the experimental part:
To test the hypothesis that inhibition of PP2A with LB-100 can enhance immune-mediated antitumor responses, rice were implanted with CT26 tumor cells. CT26 is a murine colon adenocarcinoma expressing low level of PD-L1 and is resistant to anti-PD1 therapy. After about 13 days, mice with tumor size between 30-100 mm^3 were randomized into four treatment groups (PBS control, LB-100 only—0.16 mg/kg, anti-PD-1 only—10 mg/kg, or a combination of both). Treatment was given every 2 days for a total of 28 days. Tumor size was assessed every two days (FIGS. 20A-C). Single agent treatment with anti-PD1 was ineffective in reducing tumor burden or increasing survival. LB-100 alone was able to increase median survival from 21 to 33 days (p=0.02). […]
Tumor Inoculation and Animal Studies—CT26 tumor cells (0.5×10^6) were injected subcutaneously in the right side of the abdomen. […] Tumor size were monitored with a digital caliper every 2-3 d and expressed as volume (length×width^2×0.5). […]
LB-100 and aPD-1 combination treatment synergistically elicit rejection of CT26 tumors: To test the hypothesis that PP2A inhibition synergizes with aPD-1 therapy in vivo in aPD-1 refractory tumors, a CT26 tumor was used, which is a murine colorectal carcinoma with high PD-L1 expression but limited response to aPD-1 therapy. […] Tumor growth was assessed every 2 days (FIG. 24A). […]

A short description of series [2]: clinical. The class given is in vivo, human. Conditions: in vivo; for half-life: 2.33 mg/m2, T1/2. How it is done:
The main objective was to determine the safety, tolerability, and maximum tolerated dose of LB-100 given intravenously daily for three consecutive days every 3 weeks. The secondary objectives were to document any evidence of potential anti-tumor activity and obtain pharmacokinetic data on LB-100 and a metabolite, endothall, in patients receiving LB-100 at the MTD (Quang et al., 2016).
The plasma concentrations of LB-100 and endothall were measured (Quang et al., 2016) prior to and over 4 hours after completion of the 2-hour infusion at the MTD of 2.33 mg/m2 of LB-100 on day 1 in one patient and on day 1 and 3 in two patients. […] Plasma concentrations of endothall were low throughout the infusion, being below the lower limit of detection (5 ng/mL) in one patient.

As to `CN1CCN(C(=O)C2C(C(=O)O)[C@H]3CC[C@@H]2O3)CC1` (stereo partly drawn) [LB-100], in series [1] (control 21 days, treatment every 2 days), the median survival is listed as 33 days. In addition, the “tumor growth, single agent” value in series [1] (mouse, in vivo) is given as “did not significantly decrease tumor growth”. For the same molecule, the half-life in series [2] (female, human) was 81 min; in series [2] (male, human), 66 min. In addition, the “pharmacokinetics of LB-100, in words” value in series [2] was “low clearance, low volume of distribution, and a short half-life”. For the same molecule, the T1/2 in series [2] (male, human, 2.33 mg/m2) is 57 min.

As usually defined, the half-life is the time in which the quantity being followed falls by half. Low values mean fast loss, high ones slow loss.

Values taken from patent US12168008B2, “Oxabicycloheptanes for modulation of immune response” (LIXTE BIOTECHNOLOGY, INC., priority 2016, dated 2024).
